Measured values published in ChEMBL document CHEMBL1145229, “Identified a morpholinyl-4-piperidinylacetic acid derivative as a potent oral active VLA-4 antagonist” (Bioorg Med Chem Lett, 2005).

Legend:
in vivo [1] = details: Sprague-Dawley, rat, iv, 1.2 mg/kg
Description: Clearance in sprague dawley rat at 1.2 mg/kg intra venous dosage

in vivo [2] = details: rat
Description: Half life in lambda1 phase in rat

in vivo [3] = details: rat; remark: listed apart in the source
Description: Half life in lambda2 phase in rat

in vivo [4] = details: Sprague-Dawley, rat, po, 1.2 mg/kg
Description: Percent bioavailability in sprague-dawley rat at a dosage(inta venous 1.2 mg/kg, oral 5 mg/kg )

| clearance (in vivo [1]) [mL/min/kg] | half-life (in vivo [2]) [min] | half-life (in vivo [3]) [min] | bioavailability (in vivo [4]) [%] | Structure (SMILES) |
| --- | --- | --- | --- | --- |
| 75.1 | 2.8 | 9.1 | < 1 | Cc1ccccc1NC(=O)Nc1ccc(CC(=O)N2CCCC2C(=O)NCCCCC(=O)O)cc1 (stereo not drawn) |
| 41.3 | 5.8 | 20.2 | < 1 | Cc1ccccc1NC(=O)Nc1ccc(CC(=O)N2CCCC2C(=O)N2CCC(CC(=O)O)CC2)cc1 (stereo not drawn) |
